Consider four substances from patent US20140371171A1, “Aqueous Lock Composition Comprising Ethanol and a Polysaccharide Anticoagulant” (UNIVERSITE D'AUVERGNE CLERMONT I, priority 2012, published 2014).

The first series is described as follows: Visual observation of precipitation in ethanol/enoxaparin sodium mixtures. The format is physicochemical. As to conditions: enoxaparin sodium 400 IU/mL; ethanol 60 and 70% v/v. The method, then:
Various mixtures of ethanol/enoxaparin sodium were prepared in 5 mL glass hemolysis tubes combining either: • a) a fixed concentration of enoxaparin sodium with 400 IU/mL (corresponding to the dose used in an antithrombotic preventive lock) in a range of increasing concentrations of ethanol (30%, 40%, 45%, 50%, 60% and 70% by volume (v/v)), the dilutions of ethanol having been made in physiological serum solution (NaCl in a concentration of 0.9 g/100 ml). • b) increasing concentrations of enoxaparin sodium (50, 100, 400, 500 and 1,000 IU/mL) in an ethanol solution of fixed concentration (40, 45 or 50% v/v). The visual observation of different ethanol/enoxaparin mixtures was carried out by way of an assessment of the presence (or absence) of precipitation at the time of effecting the contacting of the two solutions; the observed phenomena corresponding, either to the absence (level 0 noted −), or the presence of a precipitation. The extent of the precipitation was assessed, either based on the appearance of a cloudiness, or on the formation of a deposit in the form of droplets and the levels were evaluated by the scores: +, ++, +++. […] The observation was monitored over time, that is after 1 minute, 1 hour, 24 hours, 48 hours and 72 hours, of contact, and this was done at two temperatures, 20° C. and 37° C.
As to enoxaparin sodium, the “visual appearance of the mixture (cloudiness)” value was “the cloudiness increases progressively as the ethanol content increases”.

Staying with this series, now noted: enoxaparin sodium 400 IU/mL; ethanol less than or equal to 40% v/v; up to 72 hours at 20° C. or 37° C.
Consider enoxaparin sodium, for which the “visual appearance of the mixture (precipitation)” value is “remains clear and colourless”.

A further series in a line: Assay of enoxaparin by HPLC-ELSD in supernatant. The class given is physicochemical. As to conditions: enoxaparin sodium 400 IU/mL; ethanol 70% v/v. On the procedure:
The assaying of enoxaparin was performed by a method of coupling high-performance liquid chromatography (HPLC) with an evaporative light scattering detector (ELSD) method. In order to be within the zone of linearity of the detector response, the samples were diluted to one tenth in the physiological serum solution. The analysis was carried out in the mixtures combining enoxaparin sodium 400 IU/mL with increasing concentrations of ethanol (30 to 70% (V/V)), in comparison with a calibration range of the enoxaparin composition (marketed under the trade name Lovenox®) prepared in the physiological serum solution at the following concentrations: 6 IU/mL, 12 IU/mL, 40 IU/mL, 80 IU/mL, 120 IU/mL.
For the samples presenting a cloudiness effect, a preliminary centrifugation at 1,600 g for 5 minutes was carried out and only the supernatant was subsequently analysed.
The operating conditions for the chromatographic separation were as follows: • analytical column measuring 150 mm in length and 4.6 mm in diameter, filled with a stationary phase of C18 5 μm. • separation of components in isocratic mode making use of a mixture of methanol/water, 50/50 (V/V) at a flow rate of 0.3 mL/min. • detection using an evaporative light scattering detector (ELSD): evaporation temperature of 40° C., gain of the detector=3 and pressure of nitrogen (nebulizer gas)=3.5 bar.
In the case of enoxaparin sodium, the “enoxaparin content levels found in the supernatant after centrifugation” value is on record as “not detectable”.

The nature of another series: Ethanol concentration that does not cause the lock composition to precipitate, varying the heparin content. The settings on record: heparin content 10 IU/mL; 37° C.; observed after 48 hours. The format is physicochemical. The method, then: The lock compositions tested were as follows: • composition comprising a mixture of the nadroparin calcium and ethanol • composition comprising a mixture of the tinzaparin sodium and ethanol, • composition comprising a mixture of the dalteparin sodium and ethanol, • composition comprising a mixture of the enoxaparin sodium and ethanol. […] The compositions were tested at ambient temperature and at 37° C. and the results were observed after 48 hours.
As to dalteparin sodium, the “Ethanol content (% v/v) at 37° C. that does not cause precipitation” value was found to be 47.8 % v/v.

Regarding enoxaparin sodium, the “Ethanol content (% v/v) at 37° C. that does not cause precipitation” value worked out at 48.2 % v/v.

For nadroparin calcium, the “Ethanol content (% v/v) at 37° C. that does not cause precipitation” value came to 44.6 % v/v.

As for tinzaparin sodium, the “Ethanol content (% v/v) at 37° C. that does not cause precipitation” value is given as 44.0 % v/v.

Still in this series, the particulars now being: heparin content 10 IU/mL; ambient temperature; observed after 48 hours.
As for dalteparin sodium, the “Ethanol content (% v/v) at ambient temperature that does not cause precipitation” value was found to be 44.6 % v/v.

For enoxaparin sodium, the “Ethanol content (% v/v) at ambient temperature that does not cause precipitation” value was determined as 47.6 % v/v.

With nadroparin calcium, the “Ethanol content (% v/v) at ambient temperature that does not cause precipitation” value is 43.7 % v/v.

tinzaparin sodium: the “Ethanol content (% v/v) at ambient temperature that does not cause precipitation” value was determined as 42.1 % v/v.

The series is the same for the next values; noted with them: heparin content 500 IU/mL; 37° C.; observed after 48 hours.
As for dalteparin sodium, the “Ethanol content (% v/v) at 37° C. that does not cause precipitation” value is 41.9 % v/v.

Take enoxaparin sodium: the “Ethanol content (% v/v) at 37° C. that does not cause precipitation” value worked out at 45.8 % v/v.

nadroparin calcium: the “Ethanol content (% v/v) at 37° C. that does not cause precipitation” value is reported as 41.7 % v/v.

Consider tinzaparin sodium, for which the “Ethanol content (% v/v) at 37° C. that does not cause precipitation” value is 41.0 % v/v.

Staying with this series, now noted: heparin content 500 IU/mL; ambient temperature; observed after 48 hours.
dalteparin sodium: the “Ethanol content (% v/v) at ambient temperature that does not cause precipitation” value is 35.7 % v/v.

On to enoxaparin sodium, for which the “Ethanol content (% v/v) at ambient temperature that does not cause precipitation” value stood at 40.7 % v/v.

Take nadroparin calcium: the “Ethanol content (% v/v) at ambient temperature that does not cause precipitation” value is on record as 41.7 % v/v.

Consider tinzaparin sodium, for which the “Ethanol content (% v/v) at ambient temperature that does not cause precipitation” value stood at 34.3 % v/v.

The series is the same for the next values; noted with them: heparin content 1,000 IU/mL; 37° C.; observed after 48 hours.
As to dalteparin sodium, the “Ethanol content (% v/v) at 37° C. that does not cause precipitation” value is reported as 35.9 % v/v.

In the case of enoxaparin sodium, the “Ethanol content (% v/v) at 37° C. that does not cause precipitation” value is 43.3 % v/v.

For nadroparin calcium, the “Ethanol content (% v/v) at 37° C. that does not cause precipitation” value was 38.7 % v/v.

For the substance tinzaparin sodium, the “Ethanol content (% v/v) at 37° C. that does not cause precipitation” value amounted to 38.0 % v/v.

Staying with this series, now noted: heparin content 1,000 IU/mL; ambient temperature; observed after 48 hours.
Turning to dalteparin sodium, the “Ethanol content (% v/v) at ambient temperature that does not cause precipitation” value is given as 26.7 % v/v.

Consider enoxaparin sodium, for which the “Ethanol content (% v/v) at ambient temperature that does not cause precipitation” value was found to be 33.7 % v/v.

Regarding nadroparin calcium, the “Ethanol content (% v/v) at ambient temperature that does not cause precipitation” value was found to be 39.7 % v/v.

As to tinzaparin sodium, the “Ethanol content (% v/v) at ambient temperature that does not cause precipitation” value is on record as 26.3 % v/v.
